Assay results reported in patent US7678833B2 (Allium Vitalis Incorporated, priority 2006, dated 2010).
Entries after “also recorded” stand apart in the source; their conditions may differ. Where two headings read alike, the source gives them in different places.

How the values were obtained:
[1] = n-octanol/water; cited from earlier work
[2] = in vivo; cited from earlier work
[3] = cited from earlier work
[4] = HIV patients, 7 months, 600 mg/day to 3600 mg/day; cited from earlier work
[5] = 8 weeks, 8000 mg/day; cited from earlier work
acetaminophen = settings: mice, cited from earlier work
heapatocytes = settings: hepatocytes exposed to acetaminophen, among 8 cysteine prodrugs tested; cited from earlier work
cells = settings: cited from earlier work
red blood cells (RBCs) = assay: SAMC incubated with red blood cells: formation and localization of AllylSH and DADS; type: cell-based; settings: for extracellular AllylSH concentration: RBCs with 0.5 mM SAMC
Procedure: For these experiments, 0.25 ml of packed RBCs were suspended in 1.75 ml of phosphate buffer solution (PBS) along with an initial concentration 0.5 mM of SAMC.
The experimental results are graphed in FIG. 3.
The significant effect of glucose is due in part to the energy requirement for the reduction of GSSG to GSH by glutathione reductase, and the need for this “reductive power” to increase the concentration of thiols relative to the concentration of disulfides.

trypsin enzyme inhibitor = settings: soy flour, cysteine 2% by weight, 65 degrees C. for 1 hour; cited from earlier work
[6] = first hour after consumption; cited from earlier work
mucosal cell = settings: within 3 hours; cited from earlier work
[7] = plasma albumin level as measure of plasma thiol/disulfide redox (applicant); type: in vivo, human
From the text: Subsequently, an alternative, simpler assay procedure for the thiol/disulfide ratio was found in the literature. Other researchers had determined that the level of plasma albumin correlates linearly with the thiol/disulfide redox (BLOOD92:59, in which paper this redox relationship is expressed by the cystine/thiol ratio).
This method of determination of the plasma redox is of great interest to the applicant because the albumin concentration is one of the standard measurements performed in medical lab reports. This meant that historical data was available that could show the age-related decline in albumin level and confirm its reversal with the administration of dietary supplement capsules containing protein bound allyl mercaptan. It could also be used to confirm that the effect was reversible (by discontinuing the administration of the capsules) and repeatable (by the resumption of the administration of the capsules).
The historical albumin levels for the applicant are as follows:
Over the next 3 months, an experiment was performed to determine whether this effect was reversible, and then to see if the effect was repeatable:
The age related initial decline of approximately −0.05 per year is also shown extended by a dotted trend line. The presumed departure from the trend that occurred when the supplement use was started is indicated by the first solid line segment.

C=CCSSCC=C [DADS, Diallyl Disulfide]
partition coefficient [1]: 25

Cc1c(C)c2c(c(C)c1O)CC[C@@](C)(CCC[C@H](C)CCC[C@H](C)CCCC(C)C)O2 [alpha-tocopherol, reference compound]
partition coefficient [1]: 550

O=C1N[C@H](C(=O)O)CS1 [OTZ, L-2-Oxo-thiazolidine]
toxicity [2]: relatively non-toxic

sodium arsenate
liver glutathione level ([3]; protein deficient (6%) rats, control 74): 134 micrograms per gram
liver glutathione level ([3]; well fed rats (18% protein in the diet), control 88): 123 micrograms per gram

CC(=O)N[C@@H](CS)C(=O)O [NAC, N-acetylcysteine]
plasma albumin increase [4]: approximately 5%
toxicity [2]: relatively non-toxic
toxicity [5]: no reported toxicity
whole blood glutathione increase [5]: approximately 10%

D-glucose-L-cysteine [DGC]
hepatic injury from acetaminophen administration (acetaminophen; administered 4 hours previously): significantly reduced
hepatic injury from acetaminophen administration (acetaminophen; administered simultaneously): not effective
raising the GSH level (heapatocytes): most effective

C=CCSSC[C@H](N)C(=O)O [SAMC, S-AllylMercaptoCysteine]
total glutathione level of cells (cells): significantly increase; also recorded: significant increases
intracellular formation of AllylSH (red blood cells (RBCs); RBCs, 0.5 mM SAMC, 10 and 30 minutes, with glucose (10 mM) vs without glucose): significantly higher

N[C@@H](CS)C(=O)O [cysteine, Cysteine]
deactivation of trypsin enzyme inhibitor (trypsin enzyme inhibitor): over 90%

[AsH3] [arsenic]
excreted directly from the liver to the bile [6]: ~40%
glutathione concentration in the mucosal cell (mucosal cell): twice the normal concentration

C=CCS [AllylSH, AllylThiol]
membrane permeability (red blood cells (RBCs)): membrane permeable
extracellular AllylSH concentration (red blood cells (RBCs); fed glucose): continued to rise significantly
extracellular AllylSH concentration (red blood cells (RBCs); glucose starved): no increase in AllylSH after the initial rise
albumin level ([7]; 180 mg AllylSH each day): 5.1 g/dL
albumin level ([7]; +1 mo., AllylSH consumption discontinued): 4.9 g/dL
albumin level ([7]; donor one, ~20 mg AllylSH each day): 5.0 g/dL
albumin level ([7]; donor two, ~20 mg AllylSH each day): 5.0 g/dL
albumin level ([7]; second +1 mo., AllylSH consumption still discontinued): 4.5 g/dL
albumin level ([7]; third +1 mo., consumption resumed at 180 mg AllylSH/day): 4.7 g/dL
albumin level ([7]; ~5 mg AllylSH/day): 4.6 g/dL
